# Results: patent US20060241108A1, “Substituted phenoxazines and acridones as inhibitors of AKT” (St. Jude Children's Research Hospital, priority 2005, published 2006)
# System: AKT
# Assay: Inhibition of IGF-I stimulated AKT phosphorylation (Ser473) in Rh1 cells, Western blot
# Type: cell-based, human
# Conditions: for Inhibition (phosphorylation of AKT at Ser 473): 5 μM, 1 hour, serum starved Rh1 cells, IGF-I 10 ng/ml 10 minutes, average of two experiments; for inhibition of cellular AKT activation: at the concentrations examined in this assay (1-5 μM)
# Experimental: Cell lines and growth conditions. The human cell lines Rh1, Rh18, and Rh30 (ATCC Deposit # CRL 2061) have been described, e.g., by Hazelton et al. Cancer Res 1987;47:4501-4507 and Hosoi et al. Cancer Res. 1999;59:886-894. Rh1, Rh18 and Rh30 cells can each be grown in antibiotic free RPMI-1640 medium (available from BioWhittaker, Walkersville, Md.), supplemented with 10% fetal bovine serum (available from HyClone Laboratories, Logan, Utah) and 2 mM L-glutamine (available from BioWhittaker, Walkersville, Md.) at 37° C. in an atmosphere of 5% CO2. For serum free experiments, cells can be cultured in modified N2E (MN2E) medium (DMEM/F-12, 1:1 mixture) (Sigma, St. Louis, Mo.) supplemented with 1 μg/ml human holo transferrin, 30 nM sodium selenite, 20 nM progesterone, 100 μM putrescine, 30 nM vitamin E phosphate, and 50 μM ethanolamine. Cells in MN2E medium containing 5 μg/ml bovine fibronectin (available from Sigma, St. Louis, Mo.) are preferably plated, and allowed to attach overnight at 37° C. in a humidified, 5% CO2 atmosphere.
# Cellular screening for inhibitors. Rh1, Rh18 and Rh30 cells can each be seeded at a density of 4×10^6/10-cm plate in serum-free medium for overnight attachment. The cells can then be exposed to 0.1% DMSO or to a test compound (for example, a phenoxazine or acridone compound) for one hour, then stimulated with Insulin-like growth factor-I (IGF-I) (10 ng/ml) for 10 minutes.
# Western blot analysis. Cells are rapidly washed with ice-cold phosphate-buffered saline (PBS), placed on ice, and lysed in mammalian protein extraction reagent (M-PER; available from Pierce, Rockford, Ill.) containing one Complete™ mini protease inhibitor tablet (available from Boehringer Mannheim, Mannheim, Germany), 1 mM phenylmethylsulfonyl fluoride, 1 mM Na3VO4 and 1 mM NaF. Cellular debris is pelleted by centrifugation at 17,500×g for 10 minutes at 4° C. The protein concentration of the supernatants is measured by the bicinchoninic acid assay (e.g., using the BCA™ Protein Assay Kit, Pierce, Rockford, Ill., catalog number 23225 or 23227) using bovine serum albumin as the standard.
# For the analysis of AKT, ERK-1/2, mTOR, p70S6 kinase, ribosomal protein S6 (rpS6 or S6), and glycogen synthase kinase 3 (GSK-3), equivalent amounts of protein can be separated on a 12% SDS-polyacrylamide gel (available from BioRad, Hercules, Calif.) by electrophoresis and subsequently transferred to a nitrocellulose membrane (also available from BioRad). After a 1 hour incubation in 1×TBS containing 0.05% Tween 20 and 5% blocking reagent (skim milk) (available from Upstate Biotechnology, Lake Placid, N.Y.) at room temperature, the wet nitrocellulose membranes are incubated with appropriate antibodies (available from Cell Signaling Technology, Beverly, Mass.): rabbit polyclonal antiserum specific for the phosphorylated Ser473 or Thr308 of AKT (dilution 1:1000); rabbit polyclonal antiserum specific for phosphorylated Thr202/Tyr204 of ERK-1/2 (dilution 1:1000); rabbit polyclonal antiserum specific for phosphorylated Ser2448 or Ser2481 of mTOR (dilution 1:1000); rabbit polyclonal antiserum specific for phosphorylated Thr389 of p70S6 kinase (dilution 1:4000); rabbit polyclonal antiserum specific for phosphorylated Ser235/236 of rpS6 (dilution 1:1000); or rabbit polyclonal antiserum specific for phosphorylated Ser21/9 of GSK-3α/β (dilution 1:1000). Horseradish peroxidase-conjugated goat anti-rabbit IgG antibody (dilution 1:10,000) can be used as the secondary antibody. Immunoreactive protein can be visualized using Renaissance chemiluminescence reagent (available from Life Science Products Inc., Boston, Mass.).
# For these assays, Rh1 cells are seeded in serum-free medium for overnight attachment. The serum starved Rh1 cells are then exposed to 1-5 μM of a compound in Table I for 1 hour before stimulating with IGF-I (10 ng/ml) for 10 minutes. […]
Compound,Inhibition (phosphorylation of AKT at Ser 473),inhibition of cellular AKT activation
10-(3′-N-piperidinopropyl)-2-chlorophenoxazine [Compound 6B],++ (++ ≈ 50% inhibition),
10-(3′-N-pyrrolidinopropyl)-2-chlorophenoxazine [Compound 7B],+++ (+++ ≈ 75% inhibition),
10-(4′-N-piperidinobutyl)-2-trifluoromethylphenoxazine [Compound 13C],+++ (+++ ≈ 75% inhibition),minimal inhibition
10-(4′-N-pyrrolidinobutyl)-phenoxazine [Compound 14A],+++ (+++ ≈ 75% inhibition),minimal inhibition
10-[4′-[(β-hydroxyethyl piperazino]butyl]-phenoxazine [Compound 15A],+++ (+++ ≈ 75% inhibition),minimal inhibition
10-[[(β-hydroxyethyl) piperazino]acetyl]-2-chlorophenoxazine [Compound 21B],−−− (−−− <25% inhibition),
"Clc1ccc2c(c1)Nc1ccccc1O2 [Compound 1B, 2-chlorophenoxazine]",+ (+ ≈ 25% inhibition),
"ClCCCN1c2ccccc2Oc2ccc(Cl)cc21 [Compound 2B, 10-(3′-chloropropyl)-2-chlorophenoxazine]",−−− (−−− <25% inhibition),
"CCN(CC)CCCN1c2ccccc2Oc2ccc(Cl)cc21 [Compound 3B, 10-[3′-(N-diethylamino)-propyl]-2-chlorophenoxazine]",++ (++ ≈ 50% inhibition),
"OCCN(CCO)CCCN1c2ccccc2Oc2ccccc21 [Compound 4A, 10-[3′-[N-bis(hydroxyethyl)amino]propyl]phenoxazine]",++ (++ ≈ 50% inhibition),minimal inhibition
"OCCN(CCO)CCCN1c2ccccc2Oc2ccc(Cl)cc21 [Compound 4B, 10-[3′-[N-bis(hydroxyethyl)amino]propyl]-2-chlorophenoxazine]",++ (++ ≈ 50% inhibition),
"Clc1ccc2c(c1)N(CCCN1CCOCC1)c1ccccc1O2 [Compound 5B, 10-(3′-N-morpholinopropyl)-2-chlorophenoxazine]",−−− (−−− <25% inhibition),
"FC(F)(F)c1ccc2c(c1)N(CCCN1CCOCC1)c1ccccc1O2 [Compound 5C, 10-(3′-N-morpholinopropyl)-2-trifluoromethylphenoxazine]",−−− (−−− <25% inhibition),minimal inhibition
"c1ccc2c(c1)Oc1ccccc1N2CCCN1CCCC1 [Compound 8A, 10-(3′-N-pyrrolidinopropyl)-phenoxazine]",++ (++ ≈ 50% inhibition),minimal inhibition
"ClCCCCN1c2ccccc2Oc2ccc(Cl)cc21 [Compound 9B, 10-(4′-chlorobutyl)-2-chlorophenoxazine]",−−− (−−− <25% inhibition),
"OCCN(CCO)CCCCN1c2ccccc2Oc2ccccc21 [Compound 11A, 10-[4′-[N-bis(hydroxyethyl)amino]-butyl]phenoxazine]",+++ (+++ ≈ 75% inhibition),minimal inhibition
"OCCN(CCO)CCCCN1c2ccccc2Oc2ccc(C(F)(F)F)cc21 [Compound 11C, 10-[4′-[N-bis(hydroxyethyl)amino]butyl]-2-trifluoromethyl phenoxazine]",+++ (+++ ≈ 75% inhibition),minimal inhibition
"O=C(CCl)N1c2ccccc2Oc2ccc(Cl)cc21 [Compound 16B, 10-(chloroacetyl)-2-chlorophenoxazine]",−−− (−−− <25% inhibition),
"CCN(CC)CC(=O)N1c2ccccc2Oc2ccc(Cl)cc21 [Compound 17B, 10-[(N-diethylamino)acetyl]-2-chlorophenoxazine]",−−− (−−− <25% inhibition),
